US20100105638A1, “COSMETIC COMPOSITIONS” (priority 2007, published 2010)
Read-outs that look alike come from different tables or passages of the source.

Legend:
[1] = Solubility of Biotin in aqueous niacinamide / sodium ascorbyl phosphate solutions (addition until turbid); type: physicochemical
Description: The solubility of Biotin was assessed in aqueous niacinamide (Niacinamide PC, DSM Nutritional Products)/sodium ascorbyl phosphate (STAY-C® 50, DSM Nutritional Products) solutions in different concentration. As reference, the solubility of biotin in water was assessed.
After the addition of 5 g of water into a 10 ml glass vial, STAY-C® 50 and Niacinamide PC were added in order to yield the ratios and wt. % as indicated in table 1. The mixtures were stirred with a magnetic stirrer at RT until STAY-C® 50 and Niacinamide PC were completely dissolved. Then, biotin was added in about 1 mg steps to the mixture until the solution becomes turbid. This experiment was repeated twice.
The sum of the amount of biotin which was added before the turbidity occurred is taken as the solubility of Biotin.

[2] = hot water; cited from earlier work

In the case of `O=C(O)CCCC[C@@H]1SC[C@@H]2NC(=O)N[C@@H]21` [Biotin], the “Solubility of Biotin” value ([1]; Reference: water without STAY-C 50 and Niacinamide PC, RT) is reported as 0.022 wt. %, the “Solubility of Biotin” value ([1]; water, STAY-C 50 0.1 wt. %, Niacinamide PC 1 wt. %, ratio 1:10, RT) is reported as 0.15 wt. % and the “Solubility of Biotin” value ([1]; water, STAY-C 50 0.1 wt. %, Niacinamide PC 3 wt. %, ratio 1:30, RT) is reported as 0.17 wt. %. The “Solubility of Biotin” value ([1]; water, STAY-C 50 0.1 wt. %, Niacinamide PC 5 wt. %, ratio 1:50, RT) was 0.20 wt. %, the “Solubility of Biotin” value ([1]; water, STAY-C 50 0.1 wt. %, Niacinamide PC 10 wt. %, ratio 1:100, RT) was 0.26 wt. % and the “Solubility of Biotin” value ([1]; water, STAY-C 50 0.5 wt. %, Niacinamide PC 1 wt. %, ratio 1:2, RT) was 0.33 wt. %. For the same molecule, the “Solubility of Biotin” value ([1]; water, STAY-C 50 0.5 wt. %, Niacinamide PC 3 wt. %, ratio 1:6, RT) was 0.38 wt. %, the “Solubility of Biotin” value ([1]; water, STAY-C 50 0.5 wt. %, Niacinamide PC 5 wt. %, ratio 1:10, RT) was 0.41 wt. % and the “Solubility of Biotin” value ([1]; water, STAY-C 50 0.5 wt. %, Niacinamide PC 10 wt. %, ratio 1:20, RT) was 0.47 wt. %. The “Solubility of Biotin” value ([1]; water, STAY-C 50 1.0 wt. %, Niacinamide PC 1 wt. %, ratio 1:1, RT) was 0.64 wt. %, the “Solubility of Biotin” value ([1]; water, STAY-C 50 1.0 wt. %, Niacinamide PC 3 wt. %, ratio 1:3, RT) was 0.66 wt. % and the “Solubility of Biotin” value ([1]; water, STAY-C 50 1.0 wt. %, Niacinamide PC 5 wt. %, ratio 1:5, RT) was 0.70 wt. %. The “Solubility of Biotin” value ([1]; water, STAY-C 50 1.0 wt. %, Niacinamide PC 10 wt. %, ratio 1:10, RT) was 0.76 wt. %, the “Solubility of Biotin” value ([1]; water, STAY-C 50 3.0 wt. %, Niacinamide PC 1 wt. %, ratio 3:1, RT) was 1.53 wt. % and the “Solubility of Biotin” value ([1]; water, STAY-C 50 3.0 wt. %, Niacinamide PC 3 wt. %, ratio 1:1, RT) was 1.65 wt. %. For the same molecule, the “Solubility of Biotin” value ([1]; water, STAY-C 50 3.0 wt. %, Niacinamide PC 5 wt. %, ratio 1:1.6, RT) was 1.71 wt. %, the “Solubility of Biotin” value ([1]; water, STAY-C 50 3.0 wt. %, Niacinamide PC 10 wt. %, ratio 1:3.3, RT) was 1.78 wt. % and the Solubility of Biotin [2] was “about 0.02 g/100 ml”.
